{
  "source": "patent US20150148234A1",
  "about": "“HERBICIDE-RESISTANT SUNFLOWER PLANTS WITH MULTIPLE HERBICIDE RESISTANT ALLELES OF AHASL1 AND METHODS OF USE” (NIDERA S.A., priority 2013, published 2015)",
  "assay_in_all_cases": "imazapyr whole plant greenhouse test (Example 2)",
  "format_in_all_cases": "in vivo",
  "key": {"[1]": {"test_system": "sunflower genotypes carrying A205V (mean of H1, L1, L2)", "conditions": "for plant height 14 days after treatment, % of untreated / Phytotoxicity Index (0-9) 14 days after treatment / biomass accumulation 14 days after treatment, % of untreated: A205V Mean", "protocol": "(§1) Seeds were sown in Petri dishes and, after germination, plantlets were transplanted to pots of 10 cm of diameter in a potting media consisting of equal parts of vermiculite, soil and sand. Plants were grown in a greenhouse under natural light conditions supplemented with 400 W sodium halide lamps to provide a 16 hr daylength. Day/night temperatures were 25 and 20 ° C., respectively. At the V2-V4 stage (Schneiter & Miller (1981) Crop Sci. 21:901-903) 10 plants of each genotype were randomly assigned to each treatment consisting of eight imazapyr doses (0, 40, 80, 160, 240, 320, 400 and 480 g ai/ha, corresponding to untreated, 0.5×, 1×, 2×, 3×, 4×, 5× and 6×, respectively), and a zero-time biomass determination. Experiment was arranged as a randomized block design with a full factorial (sunflower line×treatment) arrangement of treatments and 10 replications.\n(§2) On the day of herbicide application ten plants of each genotype were cut at the cotyledonal node and dried at 60° C. for 48 hrs for zero-time dried weight determination.\n(§3) The remaining plants were maintained for 14 days after imazapyr treatment (DAT) and their height, Phytotoxicity Index (PI) and above ground dry biomass were determined Height was determined as the distance between the cotyledonal node and the apex of each plant. Above ground biomass data from each line were converted to biomass accumulation after application by subtracting the appropriate average zero- time biomass from each sample. Dry biomass data were converted to percentages of the untreated control plants within each line to allow direct comparisons between groups."}, "[2]": {"test_system": "sunflower hybrid H3 (L3 × L2), A205V + A122T", "protocol": "as §1, §2, §3"}, "[3]": {"test_system": "sunflower line L3 (cmsGM40), A122T", "protocol": "as §1, §2, §3"}},
  "note": "Marks after values point to notes of the source that are not given here.",
  "data": [
    {"smiles": "CC(C)C1(C)N=C(c2ncccc2C(=O)O)NC1=O", "note": "(centres unmarked) [imazapyr]", "values": [
      {"measurement": "plant height 14 days after treatment, % of untreated", "setting": "[1]; dose 3 (3x, 240 g ai/ha)", "result": "50.1** %"},
      {"measurement": "Phytotoxicity Index (0-9) 14 days after treatment", "setting": "[1]; dose 4 (4x, 320 g ai/ha)", "result": "7.4**"},
      {"measurement": "biomass accumulation 14 days after treatment, % of untreated", "setting": "[1]; dose 4 (4x, 320 g ai/ha)", "result": "33.5** %"},
      {"measurement": "plant height 14 days after treatment, % of untreated", "setting": "[1]; dose 4 (4x, 320 g ai/ha)", "result": "31.5** %"},
      {"measurement": "Phytotoxicity Index (0-9) 14 days after treatment", "setting": "[1]; dose 5 (5x, 400 g ai/ha)", "result": "8.2**"},
      {"measurement": "biomass accumulation 14 days after treatment, % of untreated", "setting": "[1]; dose 5 (5x, 400 g ai/ha)", "result": "28.7** %"},
      {"measurement": "plant height 14 days after treatment, % of untreated", "setting": "[1]; dose 5 (5x, 400 g ai/ha)", "result": "27.7** %"},
      {"measurement": "Phytotoxicity Index (0-9) 14 days after treatment", "setting": "[1]; dose 6 (6x, 480 g ai/ha)", "result": "8.2**"},
      {"measurement": "biomass accumulation 14 days after treatment, % of untreated", "setting": "[1]; dose 6 (6x, 480 g ai/ha)", "result": "26.1** %"},
      {"measurement": "plant height 14 days after treatment, % of untreated", "setting": "[1]; dose 6 (6x, 480 g ai/ha)", "result": "30.4** %"},
      {"measurement": "height reduction, value reached", "setting": "[1]; A205V homozygous, from 2x to 6x, of the untreated controls", "result": 69.6, "unit": "%"},
      {"measurement": "Phytotoxicity Index (0-9) 14 days after treatment", "setting": "[2]; dose 0.5 (0.5x, 40 g ai/ha)", "result": 0.5},
      {"measurement": "biomass accumulation 14 days after treatment, % of untreated", "setting": "[2]; dose 0.5 (0.5x, 40 g ai/ha)", "result": 99.804, "unit": "%"},
      {"measurement": "plant height 14 days after treatment, % of untreated", "setting": "[2]; dose 0.5 (0.5x, 40 g ai/ha)", "result": 98.7, "unit": "%"},
      {"measurement": "Phytotoxicity Index (0-9) 14 days after treatment", "setting": "[2]; dose 1 (1x, 80 g ai/ha)", "result": 0.5},
      {"measurement": "biomass accumulation 14 days after treatment, % of untreated", "setting": "[2]; dose 1 (1x, 80 g ai/ha)", "result": 100.0, "unit": "%"},
      {"measurement": "plant height 14 days after treatment, % of untreated", "setting": "[2]; dose 1 (1x, 80 g ai/ha)", "result": 97.0, "unit": "%"},
      {"measurement": "Phytotoxicity Index (0-9) 14 days after treatment", "setting": "[2]; dose 2 (2x, 160 g ai/ha)", "result": 0.5},
      {"measurement": "biomass accumulation 14 days after treatment, % of untreated", "setting": "[2]; dose 2 (2x, 160 g ai/ha)", "result": 94.3, "unit": "%"},
      {"measurement": "plant height 14 days after treatment, % of untreated", "setting": "[2]; dose 2 (2x, 160 g ai/ha)", "result": 96.7, "unit": "%"},
      {"measurement": "Phytotoxicity Index (0-9) 14 days after treatment", "setting": "[2]; dose 3 (3x, 240 g ai/ha)", "result": 0.5},
      {"measurement": "biomass accumulation 14 days after treatment, % of untreated", "setting": "[2]; dose 3 (3x, 240 g ai/ha)", "result": 90.8, "unit": "%"},
      {"measurement": "plant height 14 days after treatment, % of untreated", "setting": "[2]; dose 3 (3x, 240 g ai/ha)", "result": 93.8, "unit": "%"},
      {"measurement": "Phytotoxicity Index (0-9) 14 days after treatment", "setting": "[2]; dose 4 (4x, 320 g ai/ha)", "result": 0.5},
      {"measurement": "biomass accumulation 14 days after treatment, % of untreated", "setting": "[2]; dose 4 (4x, 320 g ai/ha)", "result": 87.8, "unit": "%"},
      {"measurement": "plant height 14 days after treatment, % of untreated", "setting": "[2]; dose 4 (4x, 320 g ai/ha)", "result": 92.0, "unit": "%"},
      {"measurement": "Phytotoxicity Index (0-9) 14 days after treatment", "setting": "[2]; dose 5 (5x, 400 g ai/ha)", "result": 0.6},
      {"measurement": "biomass accumulation 14 days after treatment, % of untreated", "setting": "[2]; dose 5 (5x, 400 g ai/ha)", "result": 72.1, "unit": "%"},
      {"measurement": "plant height 14 days after treatment, % of untreated", "setting": "[2]; dose 5 (5x, 400 g ai/ha)", "result": 65.4, "unit": "%"},
      {"measurement": "Phytotoxicity Index (0-9) 14 days after treatment", "setting": "[2]; dose 6 (6x, 480 g ai/ha)", "result": 1.0},
      {"measurement": "biomass accumulation 14 days after treatment, % of untreated", "setting": "[2]; dose 6 (6x, 480 g ai/ha)", "result": 63.2, "unit": "%"},
      {"measurement": "plant height 14 days after treatment, % of untreated", "setting": "[2]; dose 6 (6x, 480 g ai/ha)", "result": 58.0, "unit": "%"},
      {"measurement": "Phytotoxicity Index (0-9) 14 days after treatment", "setting": "[3]; dose 0.5 (0.5x, 40 g ai/ha)", "result": 0.4},
      {"measurement": "biomass accumulation 14 days after treatment, % of untreated", "setting": "[3]; dose 0.5 (0.5x, 40 g ai/ha)", "result": 96.6, "unit": "%"},
      {"measurement": "plant height 14 days after treatment, % of untreated", "setting": "[3]; dose 0.5 (0.5x, 40 g ai/ha)", "result": 100.4, "unit": "%"},
      {"measurement": "Phytotoxicity Index (0-9) 14 days after treatment", "setting": "[3]; dose 1 (1x, 80 g ai/ha)", "result": 0.4},
      {"measurement": "biomass accumulation 14 days after treatment, % of untreated", "setting": "[3]; dose 1 (1x, 80 g ai/ha)", "result": 93.9, "unit": "%"},
      {"measurement": "plant height 14 days after treatment, % of untreated", "setting": "[3]; dose 1 (1x, 80 g ai/ha)", "result": 99.9, "unit": "%"},
      {"measurement": "Phytotoxicity Index (0-9) 14 days after treatment", "setting": "[3]; dose 2 (2x, 160 g ai/ha)", "result": 0.4},
      {"measurement": "biomass accumulation 14 days after treatment, % of untreated", "setting": "[3]; dose 2 (2x, 160 g ai/ha)", "result": 81.6, "unit": "%"},
      {"measurement": "plant height 14 days after treatment, % of untreated", "setting": "[3]; dose 2 (2x, 160 g ai/ha)", "result": 92.0, "unit": "%"},
      {"measurement": "Phytotoxicity Index (0-9) 14 days after treatment", "setting": "[3]; dose 3 (3x, 240 g ai/ha)", "result": 0.5},
      {"measurement": "biomass accumulation 14 days after treatment, % of untreated", "setting": "[3]; dose 3 (3x, 240 g ai/ha)", "result": 75.8, "unit": "%"},
      {"measurement": "plant height 14 days after treatment, % of untreated", "setting": "[3]; dose 3 (3x, 240 g ai/ha)", "result": 90.5, "unit": "%"},
      {"measurement": "Phytotoxicity Index (0-9) 14 days after treatment", "setting": "[3]; dose 4 (4x, 320 g ai/ha)", "result": 1.0},
      {"measurement": "biomass accumulation 14 days after treatment, % of untreated", "setting": "[3]; dose 4 (4x, 320 g ai/ha)", "result": 75.0, "unit": "%"},
      {"measurement": "plant height 14 days after treatment, % of untreated", "setting": "[3]; dose 4 (4x, 320 g ai/ha)", "result": 90.8, "unit": "%"},
      {"measurement": "Phytotoxicity Index (0-9) 14 days after treatment", "setting": "[3]; dose 5 (5x, 400 g ai/ha)", "result": 2.0},
      {"measurement": "biomass accumulation 14 days after treatment, % of untreated", "setting": "[3]; dose 5 (5x, 400 g ai/ha)", "result": 60.1, "unit": "%"},
      {"measurement": "plant height 14 days after treatment, % of untreated", "setting": "[3]; dose 5 (5x, 400 g ai/ha)", "result": 84.4, "unit": "%"},
      {"measurement": "Phytotoxicity Index (0-9) 14 days after treatment", "setting": "[3]; dose 6 (6x, 480 g ai/ha)", "result": 2.5},
      {"measurement": "biomass accumulation 14 days after treatment, % of untreated", "setting": "[3]; dose 6 (6x, 480 g ai/ha)", "result": 59.6, "unit": "%"},
      {"measurement": "plant height 14 days after treatment, % of untreated", "setting": "[3]; dose 6 (6x, 480 g ai/ha)", "result": 84.4, "unit": "%"}
    ]}
  ]
}
